Reference: PMC10239507, “Development of allosteric and selective CDK2 inhibitors for contraception with negative cooperativity to cyclin binding” (Nature Communications, 2023)

Columns and labels:
Assay in all cases: biochemical
[1] = molecular target: T1, 371 kinases (kinase named in each endpoint) (Homo sapiens, UniProt O43781); settings: DYRK3
T1 construct: purchased Reaction Biology

[2] = molecular target: T2, 371 kinases (kinase named in each endpoint) (Homo sapiens, UniProt O75116); settings: ROCK2
T2 construct: purchased Reaction Biology
T2 sequence (O75116 whole entry): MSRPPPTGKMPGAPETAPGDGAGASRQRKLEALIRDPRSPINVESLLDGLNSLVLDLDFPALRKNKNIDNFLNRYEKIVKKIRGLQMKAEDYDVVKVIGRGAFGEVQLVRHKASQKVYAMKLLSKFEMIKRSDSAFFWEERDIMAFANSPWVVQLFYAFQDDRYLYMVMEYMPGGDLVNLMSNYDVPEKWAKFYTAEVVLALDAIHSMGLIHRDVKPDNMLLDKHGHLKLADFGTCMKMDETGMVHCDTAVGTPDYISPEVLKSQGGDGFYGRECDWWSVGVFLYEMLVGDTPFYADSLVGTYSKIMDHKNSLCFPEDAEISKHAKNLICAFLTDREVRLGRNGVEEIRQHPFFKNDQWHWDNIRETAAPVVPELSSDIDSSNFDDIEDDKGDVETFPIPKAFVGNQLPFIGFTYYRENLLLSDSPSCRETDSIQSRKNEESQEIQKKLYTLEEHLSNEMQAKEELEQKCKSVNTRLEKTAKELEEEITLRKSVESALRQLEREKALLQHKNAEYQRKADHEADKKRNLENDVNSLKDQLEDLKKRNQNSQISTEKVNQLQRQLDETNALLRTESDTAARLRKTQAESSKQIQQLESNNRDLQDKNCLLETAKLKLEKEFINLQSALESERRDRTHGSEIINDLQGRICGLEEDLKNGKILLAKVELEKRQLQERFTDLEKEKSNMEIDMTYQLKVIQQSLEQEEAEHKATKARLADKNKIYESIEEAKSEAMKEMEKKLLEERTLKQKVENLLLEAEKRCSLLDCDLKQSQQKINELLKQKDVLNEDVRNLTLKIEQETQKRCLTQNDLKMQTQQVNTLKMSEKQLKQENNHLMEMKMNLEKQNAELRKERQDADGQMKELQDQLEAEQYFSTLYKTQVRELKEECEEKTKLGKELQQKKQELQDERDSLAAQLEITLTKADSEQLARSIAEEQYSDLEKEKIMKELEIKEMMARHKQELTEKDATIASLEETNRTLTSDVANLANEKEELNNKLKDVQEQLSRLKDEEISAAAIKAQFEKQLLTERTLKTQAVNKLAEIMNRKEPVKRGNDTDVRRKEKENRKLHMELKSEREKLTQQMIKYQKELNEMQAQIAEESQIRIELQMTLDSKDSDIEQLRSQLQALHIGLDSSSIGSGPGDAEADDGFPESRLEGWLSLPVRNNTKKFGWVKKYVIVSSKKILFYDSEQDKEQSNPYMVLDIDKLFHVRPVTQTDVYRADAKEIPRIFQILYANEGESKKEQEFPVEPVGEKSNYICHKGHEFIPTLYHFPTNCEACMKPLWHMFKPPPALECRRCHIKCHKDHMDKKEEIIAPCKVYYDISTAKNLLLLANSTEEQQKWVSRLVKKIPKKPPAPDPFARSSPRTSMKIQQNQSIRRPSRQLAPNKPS

[3] = molecular target: T3, 371 kinases (kinase named in each endpoint) (Homo sapiens, UniProt O94806); settings: PKCNU/PRKD3
T3 construct: purchased Reaction Biology

[4] = molecular target: T4, 371 kinases (kinase named in each endpoint) (Homo sapiens, UniProt P00519); settings: ABL1
T4 construct: purchased Reaction Biology

[5] = molecular target: T5, 371 kinases (kinase named in each endpoint) (Homo sapiens, UniProt P04626); settings: ERBB2/HER2
T5 construct: purchased Reaction Biology

[6] = molecular target: T6, 371 kinases (kinase named in each endpoint) (Homo sapiens, UniProt P06213); settings: IR
T6 construct: purchased Reaction Biology

[7] = molecular target: T7, 371 kinases (kinase named in each endpoint) (Homo sapiens, UniProt P11802)
T7 construct: purchased Reaction Biology
T7 sequence (P11802 whole entry): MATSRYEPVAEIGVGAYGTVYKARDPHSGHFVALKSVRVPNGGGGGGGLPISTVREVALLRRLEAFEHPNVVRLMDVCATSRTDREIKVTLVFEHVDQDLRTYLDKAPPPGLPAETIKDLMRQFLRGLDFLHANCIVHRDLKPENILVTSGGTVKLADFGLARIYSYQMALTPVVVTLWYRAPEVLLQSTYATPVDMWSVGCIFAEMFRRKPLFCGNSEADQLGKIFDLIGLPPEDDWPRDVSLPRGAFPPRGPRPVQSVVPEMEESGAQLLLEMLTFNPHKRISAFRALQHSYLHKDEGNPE

[8] = molecular target: T8, 371 kinases (kinase named in each endpoint) (Homo sapiens, UniProt P12931); settings: C-SRC
T8 construct: purchased Reaction Biology

[9] = molecular target: T9, 371 kinases (kinase named in each endpoint) (Homo sapiens, UniProt P17252); settings: PKCA
T9 construct: purchased Reaction Biology

[10] = molecular target: T10, 371 kinases (kinase named in each endpoint) (Homo sapiens, UniProt P21802); settings: FGFR2
T10 construct: purchased Reaction Biology
T10 sequence (P21802 22-821): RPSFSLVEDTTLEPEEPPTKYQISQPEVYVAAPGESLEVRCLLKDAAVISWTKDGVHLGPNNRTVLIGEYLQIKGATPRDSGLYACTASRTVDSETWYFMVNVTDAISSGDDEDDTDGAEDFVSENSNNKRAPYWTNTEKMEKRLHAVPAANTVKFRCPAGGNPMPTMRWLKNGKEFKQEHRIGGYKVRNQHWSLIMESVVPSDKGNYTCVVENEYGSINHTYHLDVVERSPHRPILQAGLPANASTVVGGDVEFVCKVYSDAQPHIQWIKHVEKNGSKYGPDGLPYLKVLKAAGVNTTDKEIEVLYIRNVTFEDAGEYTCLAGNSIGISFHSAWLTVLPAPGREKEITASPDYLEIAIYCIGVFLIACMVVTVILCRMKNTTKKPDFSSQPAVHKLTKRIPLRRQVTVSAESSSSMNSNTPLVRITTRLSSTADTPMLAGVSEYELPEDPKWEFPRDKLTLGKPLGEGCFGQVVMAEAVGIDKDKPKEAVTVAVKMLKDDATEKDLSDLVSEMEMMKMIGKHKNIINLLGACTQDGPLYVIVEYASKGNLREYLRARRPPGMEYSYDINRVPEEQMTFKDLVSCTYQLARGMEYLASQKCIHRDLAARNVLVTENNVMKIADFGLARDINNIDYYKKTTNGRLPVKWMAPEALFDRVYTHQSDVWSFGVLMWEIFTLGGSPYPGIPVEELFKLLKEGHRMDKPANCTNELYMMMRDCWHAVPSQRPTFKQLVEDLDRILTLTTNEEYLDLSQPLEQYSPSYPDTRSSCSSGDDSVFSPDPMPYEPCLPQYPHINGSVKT

[11] = molecular target: T11, 371 kinases (kinase named in each endpoint) (Homo sapiens, UniProt P37023); settings: ALK1/ACVRL1
T11 construct: purchased Reaction Biology

[12] = molecular target: T12, 371 kinases (kinase named in each endpoint) (Homo sapiens, UniProt P42681); settings: TXK
T12 construct: purchased Reaction Biology

[13] = molecular target: T13, 371 kinases (kinase named in each endpoint) (Homo sapiens, UniProt P53778); settings: P38G
T13 construct: purchased Reaction Biology

[14] = molecular target: T14, 371 kinases (kinase named in each endpoint) (Homo sapiens, UniProt P78368); settings: CK1G2
T14 construct: purchased Reaction Biology

[15] = molecular target: T15, 371 kinases (kinase named in each endpoint) (Homo sapiens, UniProt Q00536); settings: CDK16/CYCLIN Y (PCTAIRE)
T15 construct: purchased Reaction Biology

[16] = molecular target: T16, 371 kinases (kinase named in each endpoint) (Homo sapiens, UniProt Q04759); settings: PKCTHETA
T16 construct: purchased Reaction Biology

[17] = molecular target: T17, 371 kinases (kinase named in each endpoint) (Homo sapiens, UniProt Q05397); settings: FAK/PTK2
T17 construct: purchased Reaction Biology

[18] = molecular target: T18, 371 kinases (kinase named in each endpoint) (Homo sapiens, UniProt Q13233); settings: MEKK1
T18 construct: purchased Reaction Biology

[19] = molecular target: T19, 371 kinases (kinase named in each endpoint) (Homo sapiens, UniProt Q14012); settings: CAMK1A
T19 construct: purchased Reaction Biology

[20] = molecular target: T20, 371 kinases (kinase named in each endpoint) (Homo sapiens, UniProt Q14680); settings: MELK
T20 construct: purchased Reaction Biology

[21] = molecular target: T21, 371 kinases (kinase named in each endpoint) (Homo sapiens, UniProt Q15759); settings: P38B/MAPK11
T21 construct: purchased Reaction Biology

[22] = molecular target: T22, 371 kinases (kinase named in each endpoint) (Homo sapiens, UniProt Q15831); settings: LKB1
T22 construct: purchased Reaction Biology

[23] = molecular target: T23, 371 kinases (kinase named in each endpoint) (Homo sapiens, UniProt Q16512); settings: PKN1/PRK1
T23 construct: purchased Reaction Biology

[24] = molecular target: T24, 371 kinases (kinase named in each endpoint) (Homo sapiens, UniProt Q16513); settings: PKN2/PRK2
T24 construct: purchased Reaction Biology

[25] = molecular target: T25, 371 kinases (kinase named in each endpoint) (Homo sapiens, UniProt Q16816); settings: PHKG1
T25 construct: purchased Reaction Biology
T25 sequence (Q16816 whole entry): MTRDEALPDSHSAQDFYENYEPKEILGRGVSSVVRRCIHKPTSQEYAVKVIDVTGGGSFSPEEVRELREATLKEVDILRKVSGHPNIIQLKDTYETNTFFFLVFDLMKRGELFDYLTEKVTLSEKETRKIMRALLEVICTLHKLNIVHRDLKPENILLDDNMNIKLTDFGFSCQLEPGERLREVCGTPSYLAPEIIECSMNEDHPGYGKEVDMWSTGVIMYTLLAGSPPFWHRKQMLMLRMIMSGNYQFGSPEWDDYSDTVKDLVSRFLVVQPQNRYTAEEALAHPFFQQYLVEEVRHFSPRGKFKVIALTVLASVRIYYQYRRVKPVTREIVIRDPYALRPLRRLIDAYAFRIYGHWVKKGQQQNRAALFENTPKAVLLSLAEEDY

[26] = molecular target: T26, 371 kinases (kinase named in each endpoint) (Homo sapiens, UniProt Q8IU85); settings: CAMK1D
T26 construct: purchased Reaction Biology

[27] = molecular target: T27, 371 kinases (kinase named in each endpoint) (Homo sapiens, UniProt Q8IVH8); settings: GLK/MAP4K3
T27 construct: purchased Reaction Biology
T27 sequence (Q8IVH8 whole entry): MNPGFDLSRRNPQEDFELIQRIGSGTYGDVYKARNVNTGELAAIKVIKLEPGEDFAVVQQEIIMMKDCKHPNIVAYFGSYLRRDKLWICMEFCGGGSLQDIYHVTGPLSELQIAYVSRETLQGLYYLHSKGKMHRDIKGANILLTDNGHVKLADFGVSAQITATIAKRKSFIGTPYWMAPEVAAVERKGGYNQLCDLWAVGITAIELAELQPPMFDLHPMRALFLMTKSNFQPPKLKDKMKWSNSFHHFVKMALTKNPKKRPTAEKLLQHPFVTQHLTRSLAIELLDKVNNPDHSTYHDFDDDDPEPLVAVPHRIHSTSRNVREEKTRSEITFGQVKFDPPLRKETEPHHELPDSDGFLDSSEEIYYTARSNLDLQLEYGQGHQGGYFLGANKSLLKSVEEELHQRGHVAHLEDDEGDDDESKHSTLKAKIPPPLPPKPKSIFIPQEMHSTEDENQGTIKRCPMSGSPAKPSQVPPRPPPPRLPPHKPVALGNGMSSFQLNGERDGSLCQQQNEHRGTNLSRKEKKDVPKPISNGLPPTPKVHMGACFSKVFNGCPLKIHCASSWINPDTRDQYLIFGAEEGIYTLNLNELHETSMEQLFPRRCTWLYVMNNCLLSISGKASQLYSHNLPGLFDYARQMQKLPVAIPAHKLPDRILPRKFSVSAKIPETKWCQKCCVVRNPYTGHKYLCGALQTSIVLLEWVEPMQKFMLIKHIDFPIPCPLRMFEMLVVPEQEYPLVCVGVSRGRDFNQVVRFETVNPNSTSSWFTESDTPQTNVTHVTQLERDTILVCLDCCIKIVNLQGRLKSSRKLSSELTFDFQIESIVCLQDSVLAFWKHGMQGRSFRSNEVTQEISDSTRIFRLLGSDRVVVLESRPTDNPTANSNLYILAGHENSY

[28] = molecular target: T28, 371 kinases (kinase named in each endpoint) (Homo sapiens, UniProt Q8TDX7); settings: NEK7
T28 construct: purchased Reaction Biology

[29] = molecular target: T29, 371 kinases (kinase named in each endpoint) (Homo sapiens, UniProt Q8TF76); settings: HASPIN
T29 construct: purchased Reaction Biology

[30] = molecular target: T30, 371 kinases (kinase named in each endpoint) (Homo sapiens, UniProt Q8WTQ7); settings: GRK7
T30 construct: purchased Reaction Biology

[31] = molecular target: T31, 371 kinases (kinase named in each endpoint) (Homo sapiens, UniProt Q8WXR4); settings: MYO3B
T31 construct: purchased Reaction Biology

[32] = molecular target: T32, 371 kinases (kinase named in each endpoint) (Homo sapiens, UniProt Q9BYP7); settings: WNK3
T32 construct: purchased Reaction Biology

[33] = molecular target: T33, 371 kinases (kinase named in each endpoint) (Homo sapiens, UniProt Q9H1R3); settings: MLCK2/MYLK2
T33 construct: purchased Reaction Biology

[34] = molecular target: T34, 371 kinases (kinase named in each endpoint) (Homo sapiens, UniProt Q9HBY8); settings: SGK2
T34 construct: purchased Reaction Biology

[35] = molecular target: T35, 371 kinases (kinase named in each endpoint) (Homo sapiens, UniProt Q9NQU5); settings: PAK6
T35 construct: purchased Reaction Biology

[36] = molecular target: T36, 371 kinases (kinase named in each endpoint) (Homo sapiens, UniProt Q9NY57); settings: STK32B/YANK2
T36 construct: purchased Reaction Biology
T36 sequence (Q9NY57 whole entry): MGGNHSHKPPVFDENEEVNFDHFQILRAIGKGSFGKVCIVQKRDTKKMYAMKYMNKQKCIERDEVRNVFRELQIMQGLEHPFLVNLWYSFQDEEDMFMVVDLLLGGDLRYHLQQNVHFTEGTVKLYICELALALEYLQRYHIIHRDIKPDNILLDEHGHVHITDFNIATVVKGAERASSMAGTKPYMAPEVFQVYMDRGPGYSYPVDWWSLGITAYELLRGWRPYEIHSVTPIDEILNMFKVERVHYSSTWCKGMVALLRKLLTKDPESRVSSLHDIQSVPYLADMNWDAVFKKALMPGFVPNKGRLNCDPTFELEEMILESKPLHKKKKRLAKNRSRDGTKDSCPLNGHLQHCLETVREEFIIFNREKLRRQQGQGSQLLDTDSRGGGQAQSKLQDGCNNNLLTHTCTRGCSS

Question: How did the activity at 10 µM [1] turn out when `O=C(O)c1cc(C(F)(F)F)ccc1NCCc1c[nH]c2cc(Br)ccc12` [Compound 5, 2-((2-(6-Bromo-1H-indol-3-yl)ethyl)amino)−5-(trifluoromethyl)benzoic Acid] was run?
Answer: 57.3 ± 2.4%

Question: And the activity at 10 µM [2]?
Answer: 90 ± 2%

Question: And the activity at 10 µM [3]?
Answer: 139 ± 7.1%

Question: What about the activity at 10 µM [4] of the same compound?
Answer: 98.7 ± 0.5%

Question: What about the activity at 10 µM [5] of the same compound?
Answer: 78 ± 0.2%

Question: And the activity at 10 µM [6]?
Answer: 64.7 ± 1.1%

Question: And the activity at 10 µM ([7]; CDK4/CYCLIN D1)?
Answer: 80.1 ± 2.6%

Question: What about the activity at 10 µM ([7]; CDK4/CYCLIN D2) of the same compound?
Answer: 29.1 ± 0.1%

Question: What about the activity at 10 µM ([7]; CDK4/CYCLIN D3) of the same compound?
Answer: 82.9 ± 0.6%

Question: What about the activity at 10 µM [8] of the same compound?
Answer: 95.1 ± 0.2%

Question: And the activity at 10 µM [9]?
Answer: 123 ± 5.3%

Question: What about the activity at 10 µM [10] of the same compound?
Answer: 101.3 ± 0.5%

Question: What about the activity at 10 µM [11] of the same compound?
Answer: 67.3 ± 1.4%

Question: And the activity at 10 µM [12]?
Answer: 80.5 ± 0.4%

Question: What about the activity at 10 µM [13] of the same compound?
Answer: 107 ± 1.5%

Question: And the activity at 10 µM [14]?
Answer: 102 ± 1.6%

Question: What about the activity at 10 µM [15] of the same compound?
Answer: 76.9 ± 0.5%

Question: What about the activity at 10 µM [16] of the same compound?
Answer: 95.5 ± 0.4%

Question: And the activity at 10 µM [17]?
Answer: 88.2 ± 1.5%

Question: What about the activity at 10 µM [18] of the same compound?
Answer: 110 ± 0.1%

Question: What about the activity at 10 µM [19] of the same compound?
Answer: 69.1 ± 1%

Question: What about the activity at 10 µM [20] of the same compound?
Answer: 95.8 ± 3%

Question: What about the activity at 10 µM [21] of the same compound?
Answer: 140 ± 2.3%

Question: And the activity at 10 µM [22]?
Answer: 93.7 ± 1.8%

Question: And the activity at 10 µM [23]?
Answer: 123 ± 1.9%

Question: What about the activity at 10 µM [24] of the same compound?
Answer: 110 ± 1.7%

Question: What about the activity at 10 µM [25] of the same compound?
Answer: 87 ± 2.6%

Question: What about the activity at 10 µM [26] of the same compound?
Answer: 69.8 ± 1.7%

Question: And the activity at 10 µM [27]?
Answer: 97.8 ± 0.3%

Question: What about the activity at 10 µM [28] of the same compound?
Answer: 80.2 ± 0.8%

Question: What about the activity at 10 µM [29] of the same compound?
Answer: 59.9 ± 1.3%

Question: What about the activity at 10 µM [30] of the same compound?
Answer: 101.5 ± 0.4%

Question: What about the activity at 10 µM [31] of the same compound?
Answer: 97.8 ± 1.5%

Question: And the activity at 10 µM [32]?
Answer: 100.7 ± 0.4%

Question: And the activity at 10 µM [33]?
Answer: 70.7 ± 0.3%

Question: What about the activity at 10 µM [34] of the same compound?
Answer: 63.9 ± 2%

Question: What about the activity at 10 µM [35] of the same compound?
Answer: 244 ± 9%

Question: What about the activity at 10 µM [36] of the same compound?
Answer: 154.6 ± 0.7%
